{"source": "patent US20240269135A1", "about": "“METHODS OF TREATING BREAST CANCER” (ASTRAZENECA AB, priority 2021, published 2024)", "key": {"[1]": {"assay": "OlympiA safety analysis: adverse events, blood transfusions", "assay_type": "in vivo", "method": "Efficacy analyses were based on the intention-to-treat (ITT) population. Survival functions were estimated by Kaplan-Meier method. The stratified Cox proportional-hazards model was used to estimate the hazard ratio and confidence intervals, the comparison of survival between treatment arms was tested by stratified log-rank test. […] Safety was assessed in the population who received at least one dose of study medication.\nAdverse events of special interest included pneumonitis, radiation pneumonitis, myelodysplastic syndrome (MDS)/AML, and new primary malignancy other than AML/MDS."}, "[2]": {"assay": "OlympiA exposure to study treatment, dose intensity, dose reductions and treatment discontinuations", "assay_type": "in vivo, human", "details": "safety analysis set; 300 mg bd, N = 911", "method": "A total of 1815 patients (911 in the olaparib-group and 904 in the placebo-group) were included in the safety analysis. The median number of days at 300 mg twice-daily protocol dose was 338 with percentage of intended dose being 94.8% in the olaparib-group, and 358 days and 98.9% in the placebo-group (Tables S11 to S13 in the Supplementary Appendix). Early treatment discontinuations, including discontinuations due to recurrence, occurred in 236 (25.9%) of the olaparib-group and 187 (20.7%) of the placebo-group (Figure S4 in the Supplementary Appendix).\nIn the olaparib-group, 228 patients (25.0%) required a dose reduction compared to 47 (5.2%) in the placebo-group. Adverse events requiring permanent discontinuation of the trial drug occurred in 90 patients (9.9%) in the olaparib-group and 38 patients (4.2%) in the placebo-group. […] (Table S15, S16 in the Supplementary Appendix). […] Any differences between the treatment arms are not considered clinically significant (Figure S5 in the Supplementary Appendix)."}, "[3]": {"tested_on": "metastatic HER2-negative breast cancer patients with gBRCA-P/LP variants", "details": "45% received capecitabine as comparator; cited from earlier work"}, "[4]": {"details": "olaparib group, safety analysis set"}, "[5]": {"details": "safety analysis set, olaparib n=911"}, "[6]": {"details": "safety analysis set, olaparib n=911, listed as olaparib"}, "[7]": {"details": "safety analysis set, 300 mg bd, N = 911"}, "[8]": {"details": "treatment month: >=1-2 months, 300 mg bd, N = 911"}, "[9]": {"details": "treatment month: >=2-3 months, 300 mg bd, N = 911"}, "[10]": {"details": "treatment month: >=3-4 months, 300 mg bd, N = 911"}, "[11]": {"details": "treatment month: >=4-5 months, 300 mg bd, N = 911"}, "[12]": {"details": "treatment month: >=5-6 months, 300 mg bd, N = 911"}, "[13]": {"details": "treatment month: >=6-7 months, 300 mg bd, N = 911"}, "[14]": {"details": "treatment month: >=7-8 months, 300 mg bd, N = 911"}, "[15]": {"details": "treatment month: >=8-9 months, 300 mg bd, N = 911"}, "[16]": {"details": "treatment month: >=9-10 months, 300 mg bd, N = 911"}, "[17]": {"details": "treatment month: >=10-11 months, 300 mg bd, N = 911"}, "[18]": {"details": "treatment month: >=11 months, 300 mg bd, N = 911"}, "[19]": {"details": "treatment month: Up to month 1, 300 mg bd, N = 911"}}}
{"smiles": "O=C(c1cc(Cc2n[nH]c(=O)c3ccccc23)ccc1F)N1CCN(C(=O)C2CC2)CC1", "note": "[Olaparib, 4-[(3-{[4-(cyclopropane-carbonyl)piperazine-1-yl]carbonyl}-4-fluorophenyl)methyl]-2H-phthalazin-1-one]", "values": [{"measurement": "anemia leading to discontinuation of study drug", "setting": "[1]; [4]", "result": 1.8, "unit": "%"}, {"measurement": "fatigue leading to discontinuation of study drug", "setting": "[1]; [4]", "result": 1.3, "unit": "%"}, {"measurement": "nausea leading to discontinuation of study drug", "setting": "[1]; [4]", "result": 2.0, "unit": "%"}, {"measurement": "neutrophil count decreased leading to discontinuation of study drug", "setting": "[1]; [4]", "result": 1, "unit": "%"}, {"measurement": "Number of patients with only 1 transfusion", "setting": "[1]; safety analysis set, olaparib N=911", "result": 4.1, "unit": "%"}, {"measurement": "Patients with at least one blood transfusion", "setting": "[1]; safety analysis set, olaparib N=911, up to 30 days after last dose", "result": 5.8, "unit": "%"}, {"measurement": "Neutrophil count decreased (neutropenia), Grade ≥3", "setting": "[1]; [5]", "result": "(4.8) %"}, {"measurement": "Neutrophil count decreased, Grade ≥3", "setting": "[1]; [5]", "result": 44, "unit": "no."}, {"measurement": "White blood cell count decreased (leukopenia), Grade ≥3", "setting": "[1]; [5]", "result": "(3.0) %"}, {"measurement": "White blood cell count decreased, Grade ≥3", "setting": "[1]; [5]", "result": 27, "unit": "no."}, {"measurement": "Anemia, Grade ≥3", "setting": "[1]; [6]", "result": 8.7, "unit": "%"}, {"measurement": "Fatigue, Grade ≥3", "setting": "[1]; [6]", "result": 1.8, "unit": "%"}, {"measurement": "Neutrophil count decreased (neutropenia), Grade ≥3", "setting": "[1]; [6]", "result": 4.8, "unit": "%"}, {"measurement": "White blood cell count decreased (leukopenia), Grade ≥3", "setting": "[1]; [6]", "result": 3.0, "unit": "%"}, {"measurement": "AE leading to permanent discontinuation of treatment: Abdominal pain upper", "setting": "[1]; [7]", "result": "1 (0.1) no. of patients (%)"}, {"measurement": "AE leading to permanent discontinuation of treatment: Anaemia", "setting": "[1]; [7]", "result": "16 (1.8) no. of patients (%)"}, {"measurement": "AE leading to permanent discontinuation of treatment: Arthralgia", "setting": "[1]; [7]", "result": "1 (0.1) no. of patients (%)"}, {"measurement": "AE leading to permanent discontinuation of treatment: Breast cancer", "setting": "[1]; [7]", "result": "1 (0.1) no. of patients (%)"}, {"measurement": "AE leading to permanent discontinuation of treatment: Decreased appetite", "setting": "[1]; [7]", "result": "2 (0.2) no. of patients (%)"}, {"measurement": "AE leading to permanent discontinuation of treatment: Diarrhoea", "setting": "[1]; [7]", "result": "3 (0.3) no. of patients (%)"}, {"measurement": "AE leading to permanent discontinuation of treatment: Dizziness", "setting": "[1]; [7]", "result": "2 (0.2) no. of patients (%)"}, {"measurement": "AE leading to permanent discontinuation of treatment: Drug hypersensitivity", "setting": "[1]; [7]", "result": "3 (0.3) no. of patients (%)"}, {"measurement": "AE leading to permanent discontinuation of treatment: Fatigue", "setting": "[1]; [7]", "result": "12 (1.3) no. of patients (%)"}, {"measurement": "AE leading to permanent discontinuation of treatment: Headache", "setting": "[1]; [7]", "result": "7 (0.8) no. of patients (%)"}, {"measurement": "AE leading to permanent discontinuation of treatment: Nausea", "setting": "[1]; [7]", "result": "18 (2.0) no. of patients (%)"}, {"measurement": "AE leading to permanent discontinuation of treatment: Neutrophil count decreased", "setting": "[1]; [7]", "result": "9 (1.0) no. of patients (%)"}, {"measurement": "AE leading to permanent discontinuation of treatment: Pruritus", "setting": "[1]; [7]", "result": "3 (0.3) no. of patients (%)"}, {"measurement": "AE leading to permanent discontinuation of treatment: Vomiting", "setting": "[1]; [7]", "result": "7 (0.8) no. of patients (%)"}, {"measurement": "AE leading to permanent discontinuation of treatment: White blood cell count decreased", "setting": "[1]; [7]", "result": "6 (0.7) no. of patients (%)"}, {"measurement": "Any AE leading to permanent discontinuation", "setting": "[1]; [7]", "result": "90 (9.9) no. of patients (%)"}, {"measurement": "lymphopenia, grade 3 or higher", "setting": "[1]; safety analysis, olaparib-group", "result": 1.2, "unit": "%"}, {"measurement": "Blood transfusions over time, Total no. of transfusions", "setting": "[1]; [8]", "result": 2}, {"measurement": "Blood transfusions over time, no. of patients (%)", "setting": "[1]; [8]", "result": "2 (0.2) no. of patients (%)"}, {"measurement": "Blood transfusions over time, Total no. of transfusions", "setting": "[1]; [9]", "result": 22}, {"measurement": "Blood transfusions over time, no. of patients (%)", "setting": "[1]; [9]", "result": "21 (2.3) no. of patients (%)"}, {"measurement": "Blood transfusions over time, Total no. of transfusions", "setting": "[1]; [10]", "result": 10}, {"measurement": "Blood transfusions over time, no. of patients (%)", "setting": "[1]; [10]", "result": "8 (0.9) no. of patients (%)"}, {"measurement": "Blood transfusions over time, Total no. of transfusions", "setting": "[1]; [11]", "result": 5}, {"measurement": "Blood transfusions over time, no. of patients (%)", "setting": "[1]; [11]", "result": "5 (0.5) no. of patients (%)"}, {"measurement": "Blood transfusions over time, Total no. of transfusions", "setting": "[1]; [12]", "result": 8}, {"measurement": "Blood transfusions over time, no. of patients (%)", "setting": "[1]; [12]", "result": "7 (0.8) no. of patients (%)"}, {"measurement": "Blood transfusions over time, Total no. of transfusions", "setting": "[1]; [13]", "result": 4}, {"measurement": "Blood transfusions over time, no. of patients (%)", "setting": "[1]; [13]", "result": "4 (0.4) no. of patients (%)"}, {"measurement": "Blood transfusions over time, Total no. of transfusions", "setting": "[1]; [14]", "result": 8}, {"measurement": "Blood transfusions over time, no. of patients (%)", "setting": "[1]; [14]", "result": "8 (0.9) no. of patients (%)"}, {"measurement": "Blood transfusions over time, Total no. of transfusions", "setting": "[1]; [15]", "result": 3}, {"measurement": "Blood transfusions over time, no. of patients (%)", "setting": "[1]; [15]", "result": "3 (0.3) no. of patients (%)"}, {"measurement": "Blood transfusions over time, Total no. of transfusions", "setting": "[1]; [16]", "result": 2}, {"measurement": "Blood transfusions over time, no. of patients (%)", "setting": "[1]; [16]", "result": "2 (0.2) no. of patients (%)"}, {"measurement": "Blood transfusions over time, Total no. of transfusions", "setting": "[1]; [17]", "result": 3}, {"measurement": "Blood transfusions over time, no. of patients (%)", "setting": "[1]; [17]", "result": "3 (0.3) no. of patients (%)"}, {"measurement": "Blood transfusions over time, Total no. of transfusions", "setting": "[1]; [18]", "result": 5}, {"measurement": "Blood transfusions over time, no. of patients (%)", "setting": "[1]; [18]", "result": "5 (0.5) no. of patients (%)"}, {"measurement": "Blood transfusions over time, Total no. of transfusions", "setting": "[1]; [19]", "result": 2}, {"measurement": "Blood transfusions over time, no. of patients (%)", "setting": "[1]; [19]", "result": "2 (0.2) no. of patients (%)"}, {"measurement": "Number of patients with a dose reduction: 1 dose reduction (%)", "setting": "[2]", "result": "170 (18.7) patients (%)"}, {"measurement": "Number of patients with a dose reduction: 2 dose reductions (%)", "setting": "[2]", "result": "57 (6.3) patients (%)"}, {"measurement": "Number of patients with a dose reduction: 3 or more dose reductions (%)", "setting": "[2]", "result": "1 (0.1) patients (%)"}, {"measurement": "Patients with a dose reduction (%)", "setting": "[2]", "result": "228 (25.0) patients (%)"}, {"measurement": "Patients with no dose reduction (%)", "setting": "[2]", "result": "683 (75.0) patients (%)"}, {"measurement": "Reason for reduction: Administrative reasons (%)", "setting": "[2]", "result": "2 (0.2) patients (%)"}, {"measurement": "Reason for reduction: Adverse event (%)", "setting": "[2]", "result": "222 (24.4) patients (%)"}, {"measurement": "Reason for reduction: Dosing error (%)", "setting": "[2]", "result": "6 (0.7) patients (%)"}, {"measurement": "Reason for reduction: Other (%)", "setting": "[2]", "result": "0 (0.0) patients (%)"}, {"measurement": "Total number of dose reductions", "setting": "[2]", "result": 287}, {"measurement": "progression-free-survival versus chemotherapy", "setting": "[3]", "result": "more effective than chemotherapy"}]}
